Data published in patent EP0345100A1, “Preparation of PAF receptors and method of quantity determination of PAF” (INSTITUT PASTEUR, priority 1988, dated 1989).

Target: T1, récepteur du PAF (Oryctolagus cuniculus, UniProt G1TEI7)
T1 construct: préparation membranaire de plaquettes de lapin; from tissue; host or cells: rabbit blood platelets, lysed by freeze/thaw, membrane pellet
Experiment: Competitive binding of [³H]PAF to rabbit platelet membrane preparations (radioreceptor assay, vacuum filtration)
Set-up: species or system lapin
Description: - 1 Aliquot de préparation membranaire de plaquettes de lapin (A) - 1 Aliquot de préparation de récepteur du PAF conforme à l'invention (B), - PAF marqué au Tritium, activité spécifique 56 Ci/mmole (DU PONT DE NEMOURS (Boston MA, USA).) - PAF non marqué (BACHEM, Budendorf, Suisse).
Des aliquots de préparations membranaires de plaquettes de lapin (∼100 µg) sont incubés pour un volume final de 200 µl de solution contenant 1 nM de /³H/PAF (15300 cpm) et soit une quantité de PAF non marqué connue (gamme de référence), soit un aliquot de dilution de l'extrait à doser. […]
Les filtres sont placés dans des fioles de comptage avec 4 ml de liquide scintillant (Atomlight NEN). La radioactivité est quantifiée sur compteur à scintillation LKB Rack beta 1214.
La différence entre la quantité de [³H]PAF lié aux membranes en absence et en présence d'un excès de PAF non marqué (1000 x [³H] PAF) est considérée comme liaison spé-cifique maximale (B˙). […]
4.2. […] Le pourcentage de [³H ]PAF lié spécifiquement aux préparations en présence de ces différentes concentrations est déterminé par rapport à la quantité de [³H ]PAF lié spécifiquement en absence de PAF standard non marqué (B/Bo : B : cpm de [³H ]PAF lié aux membranes en pré-sence de PAF standard (liaison non spécifique déduite). Bo : cpm de [³H ]PAF lié aux membranes en absence de PAF standard (liaison non spécifique déduite). […]

T1 sequence (G1TEI7 1-342): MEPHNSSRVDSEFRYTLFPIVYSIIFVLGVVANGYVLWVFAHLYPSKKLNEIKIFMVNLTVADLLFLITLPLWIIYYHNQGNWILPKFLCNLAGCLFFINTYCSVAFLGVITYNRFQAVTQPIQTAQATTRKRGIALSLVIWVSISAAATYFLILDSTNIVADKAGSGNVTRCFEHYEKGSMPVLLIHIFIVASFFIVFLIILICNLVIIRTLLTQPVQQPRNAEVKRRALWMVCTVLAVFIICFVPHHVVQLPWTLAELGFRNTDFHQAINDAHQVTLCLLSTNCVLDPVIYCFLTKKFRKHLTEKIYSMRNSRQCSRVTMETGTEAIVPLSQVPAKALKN

Row | Compound | reconnaissance par le site de liaison utilisé pour le dosage (dose maximale testée : 10⁻⁶M, Figure 2 (B/Bo)) | ED₅₀ (dose de PAF standard nécessaire pour inhiber 50 % de la liaison spécifique) (1 nM [³H]PAF, + 4° C, 1 heure 30, four experiments taken at random)
1 | CCCCCCCCCCCCCCCCOC[C@@H](O)COP(=O)([O-])OCC[N+](C)(C)C [lyso-PAF] | ne sont pas reconnus | 
2 | 1-0-alkyl-2-acétyl-sn-glycérol-3-phosphorylcholine [PAF standard] |  | 0,63 + 0,15 ng/tube
